How the values were obtained:
Assay type in all cases: in vivo
Oryza sativa (ORYSA) = experiment: Post-emergence crop plant compatibility, greenhouse pot test (also comparative test C); conditions: 1.25 g/ha, vs untreated controls
In short: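 Visual damage versus untreated plants (0% = like control, 100% = plants died) was scored about 3 weeks after a post-emergence spray in greenhouse pots. Treatment: one-leaf stage, WP or EC in water at 600 l/ha with 0.5% additive; a/b/c mark different dosages on the same crop.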

Avena fatua (AVEFA) = experiment: Post-emergence herbicidal action, greenhouse pot test; conditions: 20 g/ha, rated visually after about 3 weeks vs untreated controls, 100% = plants have died
In short: (§1)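 Activity was scored by eye about 3 weeks after treatment against untreated plants, where 100% means dead plants and 0% means no difference. Plants at the one-leaf stage received a foliar spray of WP or EC formulations in water plus 0.5% additive (600 l/ha, up to 20 g/ha). Plants were grown in sandy loam pots in a greenhouse for 2–3 weeks before spraying.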

[1] = tested on: Polygonum convolvulus (POLCO); experiment: as above
In short: as §1

[2] = tested on: Abutilon theophrasti (ABUTH); experiment: as above; conditions: rated visually after about 3 weeks vs untreated controls, 100% = plants have died
In short: as §1

Viola tricolor (VIOTR) = experiment: as above
In short: as §1

[3] = tested on: Amaranthus retroflexus (AMARE); experiment: as above; conditions: rated visually after about 3 weeks vs untreated controls, 100% = plants have died
In short: as §1

Veronica persica (VERPE) = experiment: as above
In short: as §1

Lolium rigidum (LOLRI) = experiment: as above; conditions: dosage 20 g/ha
In short: as §1

[4] = tested on: Pharbitis purpurea (PHBPU); experiment: as above
In short: as §1

[5] = tested on: Triticum aestivum (TRZAS); experiment: Post-emergence crop plant compatibility, greenhouse pot test; conditions: vs untreated controls
In short: (§2)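 Greenhouse pot test; post-emergence foliar spray at one-leaf stage, WP or EC in water + 0.5% additive, 600 l/ha. Visual rating after ~3 wk, % relative to untreated (0–100%).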

Zea mays (ZEAMX) = experiment: as above; conditions: 1.25 g/ha, vs untreated controls
In short: as §2

[6] = tested on: Matricaria inodora (MATIN); experiment: Post-emergence herbicidal action, greenhouse pot test (also comparative test C)
In short: (§3)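 Green parts of one-leaf-stage plants are sprayed at 600 l/ha with formulated compound plus 0.5% additive, then kept under optimum greenhouse conditions for about 3 weeks. Damage is scored visually, where 100% means dead plants and 0% means no difference from controls.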

[7] = tested on: Alopecurus myosuroides (ALOMY); experiment: as above; conditions: rated visually after about 3 weeks vs untreated controls, 100% = plants have died
In short: as §3

Setaria viridis (SETVI) = experiment: as above; conditions: for Post-emergence action against SETVI: 20 g/ha
In short: as §3

[8] = tested on: Echinochloa crus-galli (ECHCG); experiment: as above
In short: as §3

Compound | Post-emergence action against ORYSA (crop plant compatibility) (Oryza sativa (ORYSA)) | Post-emergence action at 20 g/ha against AVEFA in % (Avena fatua (AVEFA)) | Post-emergence action against POLCO in % ([1]; dosage 20 g/ha) | Post-emergence action at 1.25 g/ha against ABUTH in % [2] | Post-emergence action at 5 g/ha against ABUTH in % [2] | Post-emergence action at 20 g/ha against ABUTH in % [2] | Post-emergence action against VIOTR (Viola tricolor (VIOTR); 1.25 g/ha) | Post-emergence action against VIOTR (Viola tricolor (VIOTR); 5 g/ha) | Post-emergence action against VIOTR (Viola tricolor (VIOTR); 20 g/ha) | Post-emergence action at 1.25 g/ha against AMARE in % [3] | Post-emergence action at 5 g/ha against AMARE in % [3] | Post-emergence action at 20 g/ha against AMARE in % [3] | Post-emergence action against VERPE (Veronica persica (VERPE); 1.25 g/ha) | Post-emergence action against VERPE (Veronica persica (VERPE); 5 g/ha) | Post-emergence action against VERPE (Veronica persica (VERPE); 20 g/ha) | Post-emergence action against LOLRI in % (Lolium rigidum (LOLRI)) | Post-emergence action against PHBPU in % ([4]; dosage 1.25 g/ha) | Post-emergence action against PHBPU in % ([4]; dosage 5 g/ha) | Post-emergence action against PHBPU in % ([4]; dosage 20 g/ha) | Post-emergence action against TRZAS (crop plant compatibility) ([5]; 1.25 g/ha) | further results
Cn1c(C(F)(F)F)cc(=O)n(-c2cc(Oc3ccccc3OCC(=O)OCCC#N)c(Cl)cc2F)c1=O [I.7-179] | 0% | 80% | 100% | 100% | 100% | 100% | 100% | 100% | 100% | 100% | 100% | 100% | 100% | 100% | 100% | 100% | 100% | 100% | 100% | 0% | Post-emergence action against POLCO in % ([1]; dosage 5 g/ha): 100%; Post-emergence action against TRZAS (crop plant compatibility) ([5]; 5 g/ha): 0%; Post-emergence action against ZEAMX (crop plant compatibility) (Zea mays (ZEAMX)): 0%; Post-emergence action against MATIN in % ([6]; dosage 1.25 g/ha): 80%; Post-emergence action against MATIN in % ([6]; dosage 5 g/ha): 100%; Post-emergence action against MATIN in % ([6]; dosage 20 g/ha): 100%; Post-emergence action at 20 g/ha against ALOMY in % [7]: 100%; Post-emergence action against SETVI (Setaria viridis (SETVI)): 100%; Post-emergence action against SETVI in % (Setaria viridis (SETVI); dosage 1.25 g/ha): 100%; Post-emergence action against SETVI in % (Setaria viridis (SETVI); dosage 5 g/ha): 100%; Post-emergence action against ECHCG in % ([8]; dosage 5 g/ha): 100%; Post-emergence action against ECHCG in % ([8]; dosage 20 g/ha): 100%
Cn1c(C(F)(F)F)cc(=O)n(-c2cc(Oc3ccccc3OCC(=O)OCc3ccccn3)c(Br)cc2F)c1=O [I.8-276] | 20% | 80% | 100% | 100% | 100% | 100% | 100% | 100% | 100% | 100% | 100% | 100% | 100% | 100% | 100% | 100% | 100% | 100% | 100% | 20% | Post-emergence action against POLCO in % ([1]; dosage 5 g/ha): 100%; Post-emergence action against TRZAS (crop plant compatibility) ([5]; 5 g/ha): 20%; Post-emergence action against ZEAMX (crop plant compatibility) (Zea mays (ZEAMX)): 20%; Post-emergence action against MATIN in % ([6]; dosage 1.25 g/ha): 80%; Post-emergence action against MATIN in % ([6]; dosage 5 g/ha): 80%; Post-emergence action against MATIN in % ([6]; dosage 20 g/ha): 100%; Post-emergence action at 5 g/ha against ALOMY in % [7]: 80%; Post-emergence action at 20 g/ha against ALOMY in % [7]: 100%; Post-emergence action against SETVI (Setaria viridis (SETVI)): 100%; Post-emergence action against SETVI in % (Setaria viridis (SETVI); dosage 1.25 g/ha): 100%; Post-emergence action against SETVI in % (Setaria viridis (SETVI); dosage 5 g/ha): 100%; Post-emergence action against ECHCG in % ([8]; dosage 5 g/ha): 100%; Post-emergence action against ECHCG in % ([8]; dosage 20 g/ha): 100%
CCOCCOC(=O)COc1ccccc1Oc1cc(-n2c(=O)cc(C(F)(F)F)n(C)c2=O)c(F)cc1Cl [I.7-2] | 0% | 90% | 100% | 100% | 100% | 100% | 100% | 100% | 100% | 100% | 100% | 100% | 80% | 100% | 100% | 80% | 100% | 100% | 100% | 20% | Post-emergence action against TRZAS (crop plant compatibility) ([5]; 5 g/ha): 20%; Post-emergence action against ZEAMX (crop plant compatibility) (Zea mays (ZEAMX)): 0%; Post-emergence action against MATIN in % ([6]; dosage 1.25 g/ha): 80%; Post-emergence action against MATIN in % ([6]; dosage 5 g/ha): 80%; Post-emergence action against MATIN in % ([6]; dosage 20 g/ha): 100%; Post-emergence action at 5 g/ha against ALOMY in % [7]: 80%; Post-emergence action at 20 g/ha against ALOMY in % [7]: 100%; Post-emergence action against SETVI (Setaria viridis (SETVI)): 100%; Post-emergence action against SETVI in % (Setaria viridis (SETVI); dosage 1.25 g/ha): 100%; Post-emergence action against SETVI in % (Setaria viridis (SETVI); dosage 5 g/ha): 100%; Post-emergence action against ECHCG in % ([8]; dosage 5 g/ha): 100%; Post-emergence action against ECHCG in % ([8]; dosage 20 g/ha): 100%

From US20240025862A1, “SUBSTITUTED N-PHENYLURACILS AND SALTS THEREOF, AND USE THEREOF AS HERBICIDAL ACTIVE SUBSTANCES” (Bayer Aktiengesellschaft, priority 2020, published 2024)
